Patent US20240024333A1, “USE OF SMALL MOLECULE FAK ACTIVATORS TO PROMOTE MUCOSAL HEALING” (Regents of the University of Minnesota, priority 2020, published 2024)
Entries after “also recorded” stand apart in the source; their conditions may differ.

Assays:
[1] = molecular target: T1, FAK (Homo sapiens, UniProt Q05397); assay: Cell-based FAK-Tyr-397 activation (Western blot, Caco-2 cells)
T1 construct: endogenous in cells; host or cells: Caco-2 (human, ATCC)
Procedure: Human Caco-2 cells were from ATCC (Manassas, VA) and maintained in Dulbecco's Modified Essential Eagle's Medium supplemented with 10% FBS as described by us previously 25. 80-90% confluent Caco-2 cells were seeded into cell culture plates pacificated with 1% heat inactivated bovine serum albumin to prevent adhesion and avoid adhesion-associated background FAK activation. Suspended cells were then treated with DMSO (0.1%) or small molecules for 1 hour before harvesting for Western blotting.
Cells were lysed and protein concentration was determined via bicinchoninic acid protein assay (Thermo Fisher, Rockford, IL). […] Images were taken using a LICOR-Odyssey-Fc imaging system (LI-COR Biosciences, Lincoln, NE).

[2] = tested on: Caco-2 cells; assay: Caco-2 monolayer wound closure assay; assay type: cell-based, human
Procedure: Caco-2 cells were seeded at 75-80% confluence into collagen I coated 6-well plates. When the cells reached 100% confluence, wounds were made in the monolayers with non-barrier autoclaved tips. Wound images were captured using an inverted light microscope (OLYMPUS CK2, Center Valley, PA) at 0 hours and 24 hours after treatment with DMSO or small molecules. Wound areas were measured with Image J software.

[3] = molecular target: T2, Pyk2 (Homo sapiens, UniProt Q14289); assay: Pyk2 activation in intact cells; assay type: cell-based
T2 construct: endogenous in cells; host or cells: Caco-2
T2 sequence (Q14289 whole entry): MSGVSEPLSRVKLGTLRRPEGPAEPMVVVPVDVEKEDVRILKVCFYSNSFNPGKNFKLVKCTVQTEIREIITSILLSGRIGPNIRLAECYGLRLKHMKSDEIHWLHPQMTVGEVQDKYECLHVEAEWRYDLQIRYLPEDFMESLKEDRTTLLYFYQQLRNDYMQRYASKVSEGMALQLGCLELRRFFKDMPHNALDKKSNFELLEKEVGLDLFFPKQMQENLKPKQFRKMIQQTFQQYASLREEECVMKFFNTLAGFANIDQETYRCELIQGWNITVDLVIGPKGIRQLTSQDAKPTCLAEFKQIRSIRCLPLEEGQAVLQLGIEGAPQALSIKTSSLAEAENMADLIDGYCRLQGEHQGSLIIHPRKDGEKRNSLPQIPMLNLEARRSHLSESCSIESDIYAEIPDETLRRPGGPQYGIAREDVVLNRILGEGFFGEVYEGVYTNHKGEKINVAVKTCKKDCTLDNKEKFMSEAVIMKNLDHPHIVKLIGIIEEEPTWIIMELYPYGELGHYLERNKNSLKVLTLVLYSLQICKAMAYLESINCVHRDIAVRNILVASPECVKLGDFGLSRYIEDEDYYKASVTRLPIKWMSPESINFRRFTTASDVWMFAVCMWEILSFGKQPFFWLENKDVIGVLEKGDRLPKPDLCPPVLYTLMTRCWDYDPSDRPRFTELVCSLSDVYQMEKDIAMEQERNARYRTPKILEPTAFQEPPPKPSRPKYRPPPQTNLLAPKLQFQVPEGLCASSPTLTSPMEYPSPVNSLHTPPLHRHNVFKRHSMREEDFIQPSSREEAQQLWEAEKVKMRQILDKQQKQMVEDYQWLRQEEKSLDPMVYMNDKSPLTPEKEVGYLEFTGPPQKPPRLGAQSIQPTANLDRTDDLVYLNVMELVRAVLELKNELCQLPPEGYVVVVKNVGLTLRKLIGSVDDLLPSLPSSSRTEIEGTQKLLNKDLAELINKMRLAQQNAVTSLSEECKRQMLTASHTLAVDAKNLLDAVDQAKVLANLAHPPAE

[4] = molecular target: T3, Src (Homo sapiens, UniProt P12931); assay: Src activation in intact cells; assay type: cell-based
T3 construct: endogenous in cells; host or cells: Caco-2

[5] = tested on: ischemic ileal mucosal ulcers; assay: Ischemic ileal ulcer model (acetic-acid-soaked discs on serosa); assay type: in vivo, mice
[6] = tested on: intestinal mucosal ulcers; assay: Intestinal mucosal healing in vivo (model not given); parameters: species or system mice; conditions: mouse
[7] = tested on: IMR-90 human pulmonary fibroblasts; assay: Cytotoxicity in IMR-90 cells; assay type: cell-based; conditions: IMR90
[8] = tested on: SH-SY5Y human neuronal cells; assay: Cytotoxicity in SH-SY5Y cells; assay type: cell-based
[9] = B/P ratio and blood-brain barrier crossing; assay type: in vivo
[10] = Human plasma stability; assay type: in vitro ADME; conditions: at 6 h
[11] = Plasma protein binding; assay type: in vitro ADME; conditions: plasma
Description: (§1) The most successful molecules underwent in vitro ADMET assays, including mouse and human metabolic stability, solubility (pH 7.4), Caco-2 (permeability), and log D determination. We will evaluate lead candidates for drug-like properties, including aqueous solubility (PBS buffer, pH 7.4), pKa, lipophilicity, chemical stability at pH 1 (the pH of the stomach), pH 6 (small intestine), A-B partitioning (octanol-PBS buffer, pH 7.4), liver microsomal stability as an indication of potential first-pass metabolism (microsomes from mouse and humans), substrate potential for isoforms of human P450 such as CYP3A4, cell permeability (Caco-2 cells), hERG toxicity (cell lines), mutagenesis, and plasma protein binding (mouse & human). […]. Computed physical properties that correlate with good oral bioavailability and cell permeability will be calculated for new compounds throughout the optimization process and will […] also influence lead compound selection as will ligand efficiency (LE) and lipophilic efficiency (LLE). Molecules will be administered by gavage to mice at 30 mg/kg, and we will measure plasma levels at 2 and 4 hours. The most successful molecules in this regard (with the highest levels at 2 and 4 hours) may be further modified by developing combinations of modifications at different parts of the molecule.

[12] = molecular target: CYP 2C9 (Homo sapiens, UniProt P11712); assay: CYP 2C9 inhibition; assay type: in vitro ADME
CYP 2C9, sequence (P11712 whole entry): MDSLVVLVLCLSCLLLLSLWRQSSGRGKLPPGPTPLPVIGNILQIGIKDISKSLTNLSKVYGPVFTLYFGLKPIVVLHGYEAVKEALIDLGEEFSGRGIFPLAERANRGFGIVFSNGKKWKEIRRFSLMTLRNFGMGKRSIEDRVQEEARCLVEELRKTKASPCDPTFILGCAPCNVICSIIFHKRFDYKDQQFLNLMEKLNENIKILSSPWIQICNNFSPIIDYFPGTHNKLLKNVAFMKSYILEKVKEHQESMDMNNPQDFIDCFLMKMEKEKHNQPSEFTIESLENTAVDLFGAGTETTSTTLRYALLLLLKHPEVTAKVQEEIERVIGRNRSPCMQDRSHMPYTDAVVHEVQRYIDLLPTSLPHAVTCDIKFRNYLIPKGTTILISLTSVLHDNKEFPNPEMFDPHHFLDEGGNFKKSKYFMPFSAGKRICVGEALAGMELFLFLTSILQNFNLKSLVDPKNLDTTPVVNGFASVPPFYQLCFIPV
Description: as §1

[13] = molecular target: CYP 2C19 (Homo sapiens, UniProt P33261); assay: CYP 2C19 inhibition; assay type: in vitro ADME
CYP 2C19, sequence (P33261 whole entry): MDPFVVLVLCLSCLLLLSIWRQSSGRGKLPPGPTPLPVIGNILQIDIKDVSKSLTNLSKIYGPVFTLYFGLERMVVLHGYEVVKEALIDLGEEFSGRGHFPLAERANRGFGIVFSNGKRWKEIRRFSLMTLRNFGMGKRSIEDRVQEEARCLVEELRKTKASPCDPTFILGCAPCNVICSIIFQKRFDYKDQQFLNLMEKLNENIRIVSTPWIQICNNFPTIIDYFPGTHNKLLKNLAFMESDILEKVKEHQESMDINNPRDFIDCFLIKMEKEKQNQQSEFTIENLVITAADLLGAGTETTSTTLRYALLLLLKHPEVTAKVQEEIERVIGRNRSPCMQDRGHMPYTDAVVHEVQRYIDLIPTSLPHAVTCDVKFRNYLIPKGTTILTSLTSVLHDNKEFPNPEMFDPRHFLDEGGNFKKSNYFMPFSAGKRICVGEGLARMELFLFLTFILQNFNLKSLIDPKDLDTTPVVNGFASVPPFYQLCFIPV
Description: as §1

[14] = molecular target: CYP 2D6 (Homo sapiens, UniProt P10635); assay: CYP 2D6 inhibition; assay type: in vitro ADME
CYP 2D6, sequence (P10635 whole entry): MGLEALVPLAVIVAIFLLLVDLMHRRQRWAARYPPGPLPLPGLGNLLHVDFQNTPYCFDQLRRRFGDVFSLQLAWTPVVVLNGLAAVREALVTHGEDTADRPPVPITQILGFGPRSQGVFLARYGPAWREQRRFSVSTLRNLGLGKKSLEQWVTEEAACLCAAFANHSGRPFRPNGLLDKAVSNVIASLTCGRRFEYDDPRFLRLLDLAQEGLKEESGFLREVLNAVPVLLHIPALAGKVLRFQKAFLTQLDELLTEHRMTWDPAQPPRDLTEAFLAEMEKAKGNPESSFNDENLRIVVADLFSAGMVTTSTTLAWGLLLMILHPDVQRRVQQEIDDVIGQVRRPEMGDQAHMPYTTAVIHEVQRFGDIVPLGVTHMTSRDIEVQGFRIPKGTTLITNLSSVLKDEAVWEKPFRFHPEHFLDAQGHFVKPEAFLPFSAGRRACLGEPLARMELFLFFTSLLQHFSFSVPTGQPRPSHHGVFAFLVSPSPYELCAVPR
Description: as §1

[15] = molecular target: hERG (Homo sapiens, UniProt Q12809); assay: hERG toxicity; assay type: cell-based
hERG, sequence (Q12809 whole entry): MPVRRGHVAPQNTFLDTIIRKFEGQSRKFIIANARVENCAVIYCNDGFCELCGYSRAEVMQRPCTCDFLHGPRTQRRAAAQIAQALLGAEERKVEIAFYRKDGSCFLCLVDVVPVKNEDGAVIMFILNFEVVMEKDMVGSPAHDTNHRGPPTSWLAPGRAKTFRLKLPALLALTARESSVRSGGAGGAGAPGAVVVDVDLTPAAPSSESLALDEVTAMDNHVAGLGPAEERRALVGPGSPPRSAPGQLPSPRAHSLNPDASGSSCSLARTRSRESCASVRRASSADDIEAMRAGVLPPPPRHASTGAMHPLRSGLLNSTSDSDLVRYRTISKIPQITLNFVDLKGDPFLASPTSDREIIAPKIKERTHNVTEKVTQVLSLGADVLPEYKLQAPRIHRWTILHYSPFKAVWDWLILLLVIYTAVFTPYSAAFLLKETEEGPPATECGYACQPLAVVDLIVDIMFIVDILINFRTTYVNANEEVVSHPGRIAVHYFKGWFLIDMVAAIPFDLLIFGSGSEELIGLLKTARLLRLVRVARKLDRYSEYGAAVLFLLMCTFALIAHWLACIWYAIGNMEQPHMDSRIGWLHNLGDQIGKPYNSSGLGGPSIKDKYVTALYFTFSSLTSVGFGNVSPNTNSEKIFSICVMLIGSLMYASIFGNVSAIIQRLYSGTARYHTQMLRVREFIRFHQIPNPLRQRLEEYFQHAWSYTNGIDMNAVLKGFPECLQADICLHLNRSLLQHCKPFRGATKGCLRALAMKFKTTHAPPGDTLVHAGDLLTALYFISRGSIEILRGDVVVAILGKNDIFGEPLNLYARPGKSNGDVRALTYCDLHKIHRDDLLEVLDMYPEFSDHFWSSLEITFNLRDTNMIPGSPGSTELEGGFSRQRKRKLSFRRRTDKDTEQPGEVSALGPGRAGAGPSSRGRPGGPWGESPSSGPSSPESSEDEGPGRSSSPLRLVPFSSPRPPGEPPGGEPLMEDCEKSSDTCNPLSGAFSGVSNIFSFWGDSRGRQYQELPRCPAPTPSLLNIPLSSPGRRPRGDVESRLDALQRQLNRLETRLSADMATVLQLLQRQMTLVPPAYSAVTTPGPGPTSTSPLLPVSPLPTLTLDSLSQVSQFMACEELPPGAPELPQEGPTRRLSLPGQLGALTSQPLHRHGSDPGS
Description: as §1

[16] = Mini-Ames
Description: as §1

[17] = log D determination; assay type: physicochemical; conditions: pH 7.4
Description: as §1

[18] = Solubility; assay type: physicochemical
Description: as §1

[19] = tested on: mice; conditions: mouse, in vivo
[20] = mouse, in vivo, po
[21] = in vivo; conditions: mouse, T1/2
[22] = molecular target: FAK 35 kD kinase domain (Homo sapiens, UniProt Q05397); assay: In vitro kinase assay with purified FAK kinase domain; conditions: FIG. 5
FAK 35 kD kinase domain, sequence (Q05397 422-680 limits assumed): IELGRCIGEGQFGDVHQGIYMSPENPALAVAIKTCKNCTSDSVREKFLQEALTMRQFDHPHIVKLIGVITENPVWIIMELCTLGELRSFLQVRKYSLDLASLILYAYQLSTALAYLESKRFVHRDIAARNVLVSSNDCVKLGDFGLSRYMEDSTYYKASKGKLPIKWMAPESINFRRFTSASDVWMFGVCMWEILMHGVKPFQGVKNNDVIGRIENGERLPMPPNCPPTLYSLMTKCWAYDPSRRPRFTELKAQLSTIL

T1 sequence (Q05397 whole entry): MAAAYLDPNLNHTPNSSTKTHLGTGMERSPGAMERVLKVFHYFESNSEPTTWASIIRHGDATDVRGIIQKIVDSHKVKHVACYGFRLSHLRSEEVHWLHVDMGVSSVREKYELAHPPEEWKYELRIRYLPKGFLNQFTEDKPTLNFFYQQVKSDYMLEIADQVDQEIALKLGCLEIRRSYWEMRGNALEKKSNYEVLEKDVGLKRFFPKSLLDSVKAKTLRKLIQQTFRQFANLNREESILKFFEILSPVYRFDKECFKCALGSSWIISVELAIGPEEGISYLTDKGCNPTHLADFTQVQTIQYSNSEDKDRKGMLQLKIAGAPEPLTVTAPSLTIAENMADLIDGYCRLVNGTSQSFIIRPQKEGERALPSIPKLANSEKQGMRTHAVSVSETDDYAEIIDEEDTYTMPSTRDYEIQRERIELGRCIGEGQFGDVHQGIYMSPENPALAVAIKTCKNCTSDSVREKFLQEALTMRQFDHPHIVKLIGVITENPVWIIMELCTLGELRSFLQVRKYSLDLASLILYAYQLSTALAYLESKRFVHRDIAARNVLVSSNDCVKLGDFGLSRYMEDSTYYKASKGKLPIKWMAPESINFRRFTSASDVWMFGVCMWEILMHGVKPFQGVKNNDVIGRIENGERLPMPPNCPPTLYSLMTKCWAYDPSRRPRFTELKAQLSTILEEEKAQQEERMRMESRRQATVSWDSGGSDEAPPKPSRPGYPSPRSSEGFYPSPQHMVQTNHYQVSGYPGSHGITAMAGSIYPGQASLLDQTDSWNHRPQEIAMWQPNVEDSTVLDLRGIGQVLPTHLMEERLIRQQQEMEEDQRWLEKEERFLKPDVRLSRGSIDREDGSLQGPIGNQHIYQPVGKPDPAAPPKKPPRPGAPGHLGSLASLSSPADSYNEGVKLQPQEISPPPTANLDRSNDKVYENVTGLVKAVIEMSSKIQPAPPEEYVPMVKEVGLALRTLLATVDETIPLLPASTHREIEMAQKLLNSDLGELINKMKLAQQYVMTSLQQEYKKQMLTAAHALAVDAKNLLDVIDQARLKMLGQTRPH

Q: For O=C(Nc1cc(C(F)(F)F)ccc1N1CCOCC1)N1CCCC1c1ccncc1 (centres unmarked) [Compound 24], which “concentration level of FAK activation (in words)” value [1] is on record?
A: Its value is “considerably lower concentration than 45”.

Q: What about the “concentration as low as which FAK is activated” value ([1]; Caco-2 cells) of the same compound?
A: Its value is 100 pM.

Q: What about the EC50 ([1]; in vitro, assay not named in Table 4, read-out: FAK potency EC50) of the same compound?
A: The EC50 was under 0.01 µM.

Q: What about the “FAK activation / FAK-Tyr-397 phosphorylation (in words)” value ([1]; vs. DMSO vehicle control) of the same compound?
A: Its value is “seemed to activate FAK”.

Q: What about the “concentration as low as which in vitro wound closure is stimulated” value [2] of the same compound?
A: The value was 100 pM.

Q: And the “Selectivity against relative off-targets: no Pyk2 activation at multiple of FAK activation” value [3]?
A: Its value is “activation at >1000 × × FAK activation”.

Q: And the “Selectivity against relative off-targets: no Src activation at multiple of FAK activation” value [4]?
A: The value was “activation at >1000 × × FAK activation”.

Q: What about the “ischemic ulcer healing (in words)” value ([5]; mice, 40: 30 mg/kg/day by osmotic minipump, 4 days, 30 mg/kg/day) of the same compound?
A: The value was “accelerated; also recorded: can heal intestinal mucosal ulcers”.

Q: And the Mouse therapeutic dose ([5]; × 4 days)?
A: The Mouse therapeutic dose was under 30 mg/kg/day.

Q: What about the “intestinal mucosal healing in vivo (in words)” value [6] of the same compound?
A: The value was “promoting small bowel mucosal wound healing”.

Q: What about the “Cytotoxicity (LD50)” value [7] of the same compound?
A: The value was over 1 mM.

Q: And the “Cytotoxicity (LD50)” value [8]?
A: The value was over 1 mM.

Q: What about the B/P ratio ([9]; 2 h) of the same compound?
A: Its B/P ratio is “B/P ratio <0.15”.

Q: And the “blood-brain barrier crossing (in words)” value ([9]; in vivo)?
A: The value was “cross the blood-brain barrier”.

Q: And the Human plasma stability [10]?
A: Its Human plasma stability is 98.62% at 6 h.

Q: What about the fraction unbound [11] of the same compound?
A: Its fraction unbound is 0.0949.

Q: What about the IC50 [12] of the same compound?
A: Its IC50 is 4.5 µM.

Q: And the IC50 [13]?
A: The IC50 was 5.43 µM.

Q: And the IC50 [14]?
A: The IC50 was 10.1 µM.

Q: And the hERG [15]?
A: The hERG was “hERG = 2.958 μM”.

Q: And the Mini-Ames [16]?
A: Its Mini-Ames is “negative”.

Q: What about the “log D7.4” value [17] of the same compound?
A: Its value is “log D7.4 = 3.12”.

Q: And the “water solubility / need of DMSO (in words)” value [18]?
A: Its value is “required DMSO solubilization; also recorded: somewhat less insoluble”.

Q: And the solubility ([18]; PBS buffer, pH 7.4, aqueous buffer)?
A: Its solubility is 252 µM.

Q: What about the “neurotoxicity (in words)” value [19] of the same compound?
A: Its value is “no neurotoxicity was detected”.

Q: And the “tolerability / gross toxicity in mice (in words)” value [19]?
A: Its value is “without obvious toxicity”.

Q: And the “oral / enteral absorption (in words)” value [20]?
A: The value was “readily orally”.

Q: And the half-life [21]?
A: The half-life was about 1.5 h.

Q: What about the “concentration of maximal effect in in vitro kinase assay” value [22] of the same compound?
A: Its value is “about 0.3 nM”.
